From paper PMC11475570, “Impact of Optimized Ku–DNA Binding Inhibitors on the Cellular and In Vivo DNA Damage Response” (Cancers, 2024) come the findings set out here.

Each structure is given as a SMILES string.

In the assay the test system is A549 NSCLC adenocarcinoma xenograft. Put plainly: A549 NSCLC xenograft (CDX), intratumoral Ku-DBi with or without IR. Format: in vivo, mice. The settings on record: for Ki-67 expression in tumors: IHC and Western blot. As to the method: The in vivo studies were conducted as approved by the Institutional Animal Care and Use Committee at Indiana University School of Medicine. A549 cells (~2.5 × 10^6) in 50% Matrigel were injected into the hind flanks of 8–10-week-old NOD.Cg-Rag1tm1Mom Il2rgtm1Wjl/SzJ (NRG) mice (IVT, In vivo Therapeutics Core, Indiana University Melvin and Bren Simon Comprehensive Cancer Center, Indianapolis, IN, USA) as previously described. Tumor volumes were monitored by electronic caliper measurement. Mice were randomized into groups of 3 or 4 using a random group generator; 6 different scenarios were generated, and the scenario with the most similar tumor volume averages across groups was selected. Treatments were initiated when tumors were ~600 mm^3. Tumors were administered Ku-DBi (30 µL of 10 mM) or vehicle (30 µL of DMSO) via intratumoral injection 4 h before 5 Gy irradiation of the tumor with a single dose of X-rays (250 kVp; dose rate = 1.4 Gy/min; 2 cm × 2 cm field) under isoflurane anesthesia. […] Mice were sacrificed 2 h post-irradiation (or 2 h post-sham irradiation); tumors were excised and processed for immunohistochemistry (IHC) assays. Cell-free protein extracts were prepared to assess DNA-PKcs autophosphorylation and γ-H2AX levels.
Protein lysates, ranging from 20 to 30 μg, were separated by SDS-PAGE (4–20% Mini Protean TGX Gels, BioRad, Hercules, CA, USA) and transferred onto PVDF membranes (Bio-Rad) through wet transfer. Membranes blocked in 0.5% Tween and 3% BSA in 1× TBS for 1 h were probed with the following primary antibodies: Phospho-DNA PKcs (S2056) (Cat: ab124918, Abcam, Cambridge, UK), total DNA-PKcs (Cat: sc-5282, Santa Cruz Biotechnology, Dallas, TX, USA), and γ-H2AX pS139 (Cat: 613401, BioLegend, San Diego, CA, USA). […] All primary antibodies were prepared with 3% BSA and 0.02% NaN3 in TBS with 0.5% Tween. Goat anti-rabbit or anti-mouse IgG (H + L)–HRP conjugates (Cat: 170-6515 or 170-6516, Bio-Rad) were used as secondary antibodies to detect these proteins. Imaging, densitometric analysis, and quantification of protein expression were performed as previously described.
Excised tumors were fixed in 4% paraformaldehyde (PFA) solution in PBS for 24 h at 4 °C. After fixation, tumors were transferred to 70% ethanol and paraffin embedding. Sectioning was completed by the Indiana University Histology Core at the IU School of Medicine. Representative 3 μm-thick sections for each treatment were stained with H and E (HE; Harris hematoxylin, regressive method) for histologic examination or were processed for Ki-67 IHC immunodetection. Briefly, paraffin-embedded sections were deparaffinized in a xylene series (4 × 3 min) and rehydrated in a series of graded alcohol dilutions (100%, 95%, 70%, and ddH2O, 2 × 2 min each). […]

`COc1ccc(-c2ccc(/C=C3\C(=O)N(c4cccc(C(=O)O)c4)c4ccccc43)o2)cc1C(=O)Nc1cccc(OC(F)(F)F)c1` [GL-3392]: the “Ki-67 expression in tumors” value (3392 intratumoral plus 5 Gy IR) is on record as “statistically significant decrease in the Ki-67 expression” and the “Ki-67 expression in tumors” value (single-agent 3392, intratumoral) is listed as “limited effects”. For the same compound, the γ-H2AX in tumors entry (3392 intratumoral plus 5 Gy IR, Western blot) is “further exacerbated in the combination-treated tumors”. Besides, the “IR-induced DNA-PKcs autophosphorylation in tumors” value (intratumoral 30 µL of 10 mM, 4 h before 5 Gy, tumors taken 2 h post-irradiation, Western blot) is reported as “effectively reversed the IR-induced DNA-PKcs autophosphorylation”.
